Measurements: patent US9120779B2, “Inhibitors of HCV NS5A” (PRESIDIO PHARMACEUTICALS, INC., priority 2008, dated 2015)
Like-named read-outs stand apart in the source and are kept apart here.

Test system: HCV genotype 1b replicon in Huh 7 cells
Assay: HCV replicon assay (luciferase readout, 1b_Huh-Luc/Neo-ET cell line)
Format: cell-based
Settings: Hepatitis C virus, Huh-7, 72 h
Procedure, shortened: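 Inhibition expressed as percent of untreated control luciferase signal and fitted to a Hill-slope equation for EC50, with repeat determinations. Compounds were added in triplicate to Huh 7 cells stably expressing the genotype 1b luciferase replicon, with 72 h exposure.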

[1] = read-out: Inhibition of HCV genotype 1b, Table 5, 72 h incubation
[2] = read-out: Inhibition of HCV genotype 1b, Table 4, 72 h incubation
[3] = read-out: Inhibition of HCV genotype 1b, Table 3, 72 h incubation
[4] = read-out: Inhibition of HCV genotype 1b, Table 1, 72 h incubation

Compound	EC50 [1] [nM]	EC50 [3] [nM]	other results
COC(=O)N[C@@H](CC(C)C)C(=O)N1CCC[C@H]1c1ncc(C23CCC(c4ccc(-c5cnc([C@@H]6CCCN6C(=O)[C@@H](NC(=O)OC)C(C)C)[nH]5)cc4)(CC2)CC3)[nH]1 [compound 2065]	< 1	–	–
COC(=O)N[C@@H](C(=O)N1CCC[C@H]1c1nc2ccc(-c3ccc(-c4ccc5nc([C@@H]6CCCN6C(=O)[C@H](NC(=O)OC)C(C)C)[nH]c5c4)cc3)cc2[nH]1)C(C)C [compound 2035]	–	–	EC50 [2]: 10 to 999 nM
COC(=O)N[C@@H](C)C(=O)N1CCC[C@H]1c1ncc(-c2ccc(C34CCC(c5cnc([C@@H]6CCCN6C(=O)[C@H](C)NC(=O)OC)[nH]5)(CC3)CC4)cc2)[nH]1 [compound 916]	< 1	–	–
CCNC(=O)N[C@@H](C(=O)N1CCC[C@H]1c1ncc(-c2ccc(C34CCC(c5cnc([C@@H]6CCCN6C(=O)[C@@H](NC(=O)OC)C(C)C)[nH]5)(CC3)CC4)cc2)[nH]1)c1ccccc1 [compound 2103]	< 1	–	–
COC(=O)N[C@@H](C(=O)N1CCC[C@H]1c1ncc(-c2ccc(C34CCC(c5cnc([C@@H]6CCCN6C(=O)[C@H](OC)c6ccccc6)[nH]5)(CC3)CC4)cc2)[nH]1)c1ccccc1 [compound 615]	< 1	–	–
COC(=O)N[C@@H](C(=O)N1CCC[C@H]1c1ncc(-c2cc(F)c(N3CCC(c4cnc([C@@H]5CCCCN5C(=O)[C@H](NC(=O)OC)C(C)C)[nH]4)CC3)c(F)c2)[nH]1)C(C)C [compound 504]	–	> 1000	–
COC(=O)N[C@H](C(=O)N1CCC[C@H]1c1ncc(-c2ccc(C34CCC(c5cnc([C@@H]6CCCN6C(=O)[C@H](NC(=O)N6CC[C@@H](O)C6)c6ccccc6)[nH]5)(CC3)CC4)cc2)[nH]1)C(C)C [compound 2088]	< 1	–	–
COC(=O)N[C@H](C(=O)N1CCC[C@H]1c1ncc(-c2ccc(C34CCC(c5cnc([C@@H]6CCCN6C(=O)[C@@H](NC(=O)OC)C6CCOCC6)[nH]5)(CC3)CC4)cc2)[nH]1)C(C)C [compound 2106]	< 1	–	–
CNC(=O)N[C@H](C(=O)N1CCC[C@H]1c1ncc(-c2ccc(C34CCC(c5cnc([C@@H]6CCCN6C(=O)[C@@H](NC(=O)OC)C(C)C)[nH]5)(CC3)CC4)cc2)[nH]1)C(C)C [compound 2095]	< 1	–	–
COC(=O)N[C@H](C(=O)N1CCC[C@H]1c1ncc(C2CCN(c3c(F)cc(-c4cnc([C@@H]5CCCN5C(=O)[C@H](NC(=O)OC)c5ccccc5)[nH]4)cc3F)CC2)[nH]1)[C@@H](C)OC [compound 466]	–	< 1	–
O=C(N[C@@H](C(=O)N1CCC[C@H]1c1nc2ccc(-c3ccc(-c4ccc5nc([C@@H]6CCCN6C(=O)[C@H](NC(=O)C6CC6)c6ccccc6)[nH]c5c4)cc3)cc2[nH]1)c1ccccc1)C1CC1 [compound 930]	–	–	EC50 [2]: < 1 nM
COC(=O)N[C@H](C(=O)N1CCC[C@H]1c1ncc(-c2ccc(C34CCC(c5cnc([C@@H]6CCCN6C(=O)[C@@H](C)NC(=O)OC)[nH]5)(CC3)CC4)cc2)[nH]1)C(C)C [compound 2062]	< 1	–	–
COC(=O)N[C@@H](C(=O)N1CCC[C@H]1c1ncc(-c2cc(F)c(N3CCC(c4cnc([C@@H]5CCCN5C(=O)[C@@H](c5ccccc5)N5CCCCC5)[nH]4)CC3)c(F)c2)[nH]1)c1ccccc1 [compound 469]	–	< 1	–
CC(C)(C)OC(=O)N[C@@H](C(=O)N1CCC[C@H]1C(=O)NC1CCN(c2ccc(-c3cnc([C@@H]4CCCN4C(=O)[C@H](NC(=O)OC(C)(C)C)c4ccccc4)[nH]3)cc2F)CC1)c1ccccc1 [compound 453]	–	< 1	–
CC(C)(C)OC(=O)N[C@@H](C(=O)N1CCC[C@H]1c1ncc(-c2cc(F)c(N3CCC(c4cnc([C@@H]5CCCN5C(=O)[C@H](NC(=O)OC(C)(C)C)c5ccccc5)[nH]4)CC3)c(F)c2)[nH]1)c1ccccc1 [compound 482]	–	< 1	–
COC(=O)N[C@@H](C(=O)N1CCC[C@H]1c1ncc(-c2ccc(-c3ccc4nc([C@@H]5CCCN5C(=O)[C@H](NC(=O)OC)c5ccccc5)[nH]c4c3)cc2)[nH]1)c1ccccc1 [compound 401]	–	–	EC50 (read-out: Inhibition of HCV genotype 1b, Table 2, 72 h incubation): < 1 nM
COC(=O)N[C@@H](C(=O)N1CCC[C@H]1c1ncc(-c2cc(F)c(N3CCC(c4cnc([C@@H]5CCCN5C(=O)[C@H](NC(=O)OC(C)(C)C)c5ccccc5)[nH]4)CC3)c(F)c2)[nH]1)c1ccccc1 [compound 460]	–	< 1	–
COC(=O)N[C@@H](C(=O)N1CCC[C@H]1c1ncc(-c2cc(F)c(N3CCC(c4cnc([C@@H]5CCCCN5C(=O)[C@H](NC(=O)OC)c5ccccc5)[nH]4)CC3)c(F)c2)[nH]1)c1ccccc1 [compound 487]	–	< 1	–
COC(=O)N[C@H](C(=O)N1CCC[C@H]1c1ncc(C23CCC(c4ccc(-c5cnc([C@@H]6CCCN6C(=O)[C@H](NC(=O)OC6CCOCC6)C(C)C)[nH]5)cc4)(CC2)CC3)[nH]1)C(C)C [compound 2080]	< 1	–	–
CC(C)[C@H](NC(=O)N1CCOCC1)C(=O)N1CCC[C@H]1c1ncc(-c2ccc([C@H]3CC[C@H](c4cnc([C@@H]5CCCN5C(=O)[C@@H](NC(=O)N5CCOCC5)C(C)C)[nH]4)CC3)cc2)[nH]1 [compound 385]	–	–	EC50 [4]: 10 to 999 nM
COC(=O)N[C@H](C(=O)N[C@@H](C)c1nc2ccc(-c3ccc(-c4ccc5nc([C@@H]6CCCN6C(=O)[C@@H](C(C)C)N(C)C)[nH]c5c4)cc3)cc2[nH]1)C(C)C [compound 938]	–	–	EC50 [2]: < 1 nM
COC(=O)N[C@H](C(=O)N1CCC[C@H]1c1ncc(-c2ccc(C34CCC(c5cnc([C@@H]6CCCN6C(=O)[C@@H](NC6CCOCC6)C(C)C)[nH]5)(CC3)CC4)cc2)[nH]1)C(C)C [compound 2054]	1 to 9.9	–	–
COC(=O)N[C@H](Cc1ccccc1)C(=O)N1CCC[C@H]1c1ncc(C23CCC(c4ccc(-c5cnc([C@@H]6CCCN6C(=O)[C@H](NC(=O)OC)c6ccccc6)[nH]5)cc4)(CC2)CC3)[nH]1 [compound 610]	< 1	–	–
CC(C)[C@H](NC(=O)N1CCOCC1)C(=O)N1CCC[C@H]1c1ncc(-c2ccc([C@H]3CC[C@@H](c4cnc([C@@H]5CCCN5C(=O)[C@@H](NC(=O)N5CCOCC5)C(C)C)[nH]4)CC3)cc2)[nH]1 [compound 386]	–	–	EC50 [4]: 10 to 999 nM
COC(=O)N[C@H](C(=O)N1CCOC[C@H]1c1ncc(-c2cc(F)c(N3CCC(c4cnc([C@@H]5CCCN5C(=O)[C@@H](NC(=O)OC)C(C)C)[nH]4)CC3)c(F)c2)[nH]1)C(C)C [compound 509]	–	< 1	–
O=C(NC1CCN(c2ccc(-c3cnc([C@@H]4CCCN4C(=O)[C@H](NC(=O)N4CCOCC4)c4ccccc4)[nH]3)cc2F)CC1)[C@@H]1CCCN1C(=O)[C@H](NC(=O)N1CCOCC1)c1ccccc1 [compound 455]	–	1 to 9.9	–
COC(=O)N[C@H](C(=O)N1CCC[C@H]1c1ncc(-c2ccc([C@H]3CC[C@H](c4cnc([C@@H]5CCCN5C(=O)[C@@H](NC(=O)OC)[C@@H](C)OC)[nH]4)CC3)cc2)[nH]1)[C@@H](C)OC [compound 388]	–	–	EC50 [4]: < 1 nM
COC(=O)N[C@H](C(=O)N1CCC[C@H]1c1ncc(-c2ccc([C@H]3CC[C@H](c4cnc([C@@H]5CCCN5C(=O)[C@H](NC(=O)NC5CCOCC5)C(C)C)[nH]4)CC3)cc2)[nH]1)C(C)C [compound 944]	–	–	EC50 [4]: < 1 nM
COC(=O)N[C@H](C(=O)N1CCC[C@H]1c1ncc(C23CCC(c4ccc(-c5cnc([C@@H]6CCCN6C(=O)[C@H](C(C)C)N6CCC(O)CC6)[nH]5)cc4)(CC2)CC3)[nH]1)C(C)C [compound 2071]	< 1	–	–
COC(=O)N[C@H](C(=O)N1CCC[C@H]1c1nc2ccc(-c3cnc(-c4ccc5nc([C@@H]6CCCN6C(=O)[C@@H](NC(=O)OC)C(C)C)[nH]c5c4)cn3)cc2[nH]1)C(C)C [compound 2036]	–	–	EC50 [2]: < 1 nM
